Results on four molecules are retold here after ChEMBL document CHEMBL5321224, “Antimicrobial peptides: Structure, mechanism, and modification” (2023).

Common to all, as to type: functional
In assay [1] the test system is Pseudomonas aeruginosa. The assay can be described thus: Antimicrobial activity against Pseudomonas aeruginosa KCTC 1637 measured after 18 hrs.
Assay [2] concerns Pseudomonas aeruginosa. Description: Antimicrobial activity against Pseudomonas aeruginosa measured after 18 hrs.
In assay [3] the test system is Escherichia coli. Description: Antimicrobial activity against Escherichia coli ATCC 33694 measured after 18 hrs.
Assay [4] has as its system Pseudomonas aeruginosa. The assay can be described thus: Antimicrobial activity against Pseudomonas aeruginosa OT97 assessed as reduction of microbial.
Assay [5] deals with Staphylococcus aureus. The assay can be described thus: Antimicrobial activity against Staphylococcus aureus Cowan 1 assessed as reduction of microbial.
Assay [6] deals with Escherichia coli. The assay can be described thus: Antimicrobial activity against Escherichia coli D21 assessed as reduction of microbial growth. As to conditions: time 24 hrs.
The subject of assay [7] is Escherichia coli. The assay can be described thus: Antimicrobial activity against Escherichia coli assessed as reduction of microbial growth incubated for 24 hrs.
Assay [8] relates to Staphylococcus aureus. The assay can be described thus: Antimicrobial activity against Staphylococcus aureus assessed as reduction of microbial growth incubated for 24 hrs.
In assay [9] the test system is Pseudomonas aeruginosa. The assay can be described thus: Antimicrobial activity against Pseudomonas aeruginosa assessed as reduction of microbial growth incubated for 24 hrs.

The molecule H-KWKKLLKKPLLKKLLKKL-NH2 displayed an LD in [1] of 0.78 µM.
Take H-KWKLFKKIGIGKFLHSAKKF-NH2: the LD came out at 1.56 µM in [2] and 6.25 µM in assay [3].
In the case of H-KWKLFKKIGIGAVLKVLKTTGLPALI-OH, the figures for the LD in assay [4], in assay [5] and in [6] were 0.7 µM, 1 µM and 0.3 µM, respectively.
For `CC[C@H](C)[C@H](NC(=O)CN)C(=O)NCC(=O)N[C@@H](C)C(=O)N[C@H](C(=O)N[C@@H](CC(C)C)C(=O)N[C@@H](CCCCN)C(=O)N[C@H](C(=O)N[C@@H](CC(C)C)C(=O)N[C@H](C(=O)N[C@H](C(=O)NCC(=O)N[C@@H](CC(C)C)C(=O)N[C@@H](CCCCN)C(=O)N[C@@H](Cc1c[nH]c2ccccc12)C(=O)N[C@@H](CCCCN)C(=O)N[C@@H](CC(C)C)C(=O)N[C@@H](Cc1ccccc1)C(=O)N[C@@H](CCCCN)C(=O)N[C@@H](CCCCN)C(=O)N[C@H](C(=O)N[C@@H](CCC(=O)O)C(=O)N[C@@H](CCCCN)C(=O)N[C@H](C(=O)NCC(=O)N[C@@H](CCC(N)=O)C(=O)N[C@@H](CC(N)=O)C(=O)N[C@H](C(=O)N[C@@H](CCCNC(=N)N)C(=O)N[C@@H](CC(=O)O)C(=O)NCC(=O)N[C@H](C(=O)N[C@H](C(=O)N[C@@H](CCCCN)C(=O)N[C@@H](C)C(=O)O)[C@@H](C)CC)[C@@H](C)CC)[C@@H](C)CC)C(C)C)[C@@H](C)CC)[C@@H](C)O)[C@@H](C)O)C(C)C)C(C)C`, the values for the LD in assay [7], in assay [8] and in assay [9] were 0.7 µM, 5 µM and 8 µM, respectively.
